From publication PMC12118337, “Development of a Peptide Inhibitor Targeting the C‐SH2 Domain of the SHP2 Phosphatase” (Chembiochem, 2025) come the findings set out here.

One assay deals with T1, SHP2 C‐SH2 domain (Homo sapiens, UniProt Q06124).
T1 construct: SHP2 N-SH2 domain (1–105), C-SH2 domain (106–220), PTP domain (224–541) and; His6 (pETM22 vector) (N, cleaved yes); made in house; host or cells: E. coli BL21(DE3)
T1 sequence (Q06124 106-220): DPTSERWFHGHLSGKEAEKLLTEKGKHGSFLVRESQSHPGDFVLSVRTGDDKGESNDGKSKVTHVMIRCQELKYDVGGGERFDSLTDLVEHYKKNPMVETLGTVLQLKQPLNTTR
Description: Fluorescence polarization (FP) binding assay, SHP2 C-SH2 domain. The following applies: 100 nM FAM-labelled peptide; for Kd: increasing C-SH2 protein, 50 mM HEPES pH 7.5, 150 mM NaCl, 1 mM EDTA, 0.05% Tween 20, FP at 10 min, three independent experiments in technical triplicates, read-out: K D ± SEM, C‐SH2 (FP). The protocol: (§1) buffer and stored in 5 mL binding buffer at 4°C. His-tagged 3C protease (0.5 mg; EMBL) was added to the pooled eluted fractions and dialysed using Spectra Por Dialysis Tubing (MWCO 6-8 kDa, 23 mm; Spectrum Labs) in 1 L of binding buffer at 4°C for 3 hours, then overnight in fresh buffer. A new column was prepared by loading 2 mL Ni-NTA Agarose (Invitrogen) as a 50% slurry in EtOH. The column was washed with 10 mL H2O to remove the EtOH and equilibrated with 10 mL binding buffer. The protein/3C protease mixture was loaded onto the column and incubated for 1 hour at 4°C on a rocker. The flow through containing the protein was collected, the column was washed with 100 mL binding buffer and the 3C protease was eluted with 5 mL elution buffer. Protein purification was monitored by SDS-PAGE using NuPAGE 4-12% Bis-Tris Protein Gels (Invitrogen) run in MOPS buffer (50 mM MOPS, 50 mM Tris-HCl pH 7.7, 1 mM EDTA, 0.1% SDS) followed by Coomassie staining using Coomassie Brilliant Blue (Roth). The purified protein was dialysed into the final storage buffer (50 mM HEPES pH 7.5, 150 mM NaCl, 2 mM DTT, 20% glycerol). Aliquots were prepared and stored at -80°C until required. […]
(§2) 4. Fluorescence polarization
(§3) Fluorescence polarization (FP) was used to measure the binding of FAM-labelled peptides to the SHP2 C-SH2, SHP2 N-SH2, SHP2 PTP, CSK SH2 or Src SH2 domains. Each peptide was added to increasing concentrations of SHP2 C-SH2, SHP2 N-SH2, SHP2 PTP, CSK SH2 or Src SH2 protein in FP buffer (50 mM HEPES pH 7.5, 150 mM NaCl, 1 mM EDTA, 0.05% Tween 20) to give a final peptide […]
(§4) concentration of 100 nM in a final volume of 200 µL. For baseline subtraction, each peptide was added to FP buffer, instead of protein, with a final peptide concentration of 100 nM in a final volume of 200 µL. Samples were mixed gently then 3 x 60 µL of each sample was transferred into triplicate wells in a 96-well plate (OptiPlate-96 F Black; PerkinElmer). The FP was immediately measured on a Synergy H1 Microplate Reader (BioTek) with the excitation and emission monitored at 485 nm and 528 nm, respectively, over 30 minutes. FP values were automatically calculated by the Gen5 3.03 (BioTek) software associated with the microplate reader. Data were analysed in Excel 2016 by subtracting baseline values from FP values at 10 minutes. Data were then further analysed in GraphPad Prism 6 by plotting the baseline subtracted FP values against the protein concentration and fitting the data to a variable slope model of non-linear regression to obtain the KD values. Data are from three independent experiments, each performed in technical triplicates.
(§5) 5. Isothermal titration calorimetry […]
(§6) Analysis Software (Malvern Panalytical). For the data analysis, a 1:1 binding stoichiometry between the Ac-ITSM(pTyr) and SH2 domain was assumed. ITC measurements were performed once.
(In fluorescence polarisation assays a small probe gives low polarisation when free and higher when bound to something large.)

Another assay deals with T2, SHP2 N‐SH2 domain (Homo sapiens, UniProt Q06124).
T2 construct: SHP2 N-SH2 domain (1–105), C-SH2 domain (106–220), PTP domain (224–541) and; His6 (pETM22 vector) (N, cleaved yes); made in house; host or cells: E. coli BL21(DE3)
T2 sequence (Q06124 1-105): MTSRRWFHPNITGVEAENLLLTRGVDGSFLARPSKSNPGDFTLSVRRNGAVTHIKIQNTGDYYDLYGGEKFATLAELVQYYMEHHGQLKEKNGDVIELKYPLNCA
In words: Fluorescence polarization (FP) binding assay, SHP2 N-SH2 domain. The following applies: 100 nM FAM-labelled peptide; for Kd: increasing N-SH2 protein, 50 mM HEPES pH 7.5, 150 mM NaCl, 1 mM EDTA, 0.05% Tween 20, FP at 10 min, three independent experiments in technical triplicates, read-out: K D ± SEM, N‐SH2 (FP). The method, then: as §1, §2, §3, §4, §5, §6

Non-standard residues stand in square brackets, D forms with d. Residues, ends and D or L forms follow the SMILES beside them. *: point of attachment. 5FAM = O=C1OC2(c3ccc(O)cc3Oc3cc(O)ccc32)c2ccc(C(=O)*)cc21; F2Pmp = N[C@@H](Cc1ccc(C(F)(F)P(=O)(O)O)cc1)C(=O)O; Pmp = N[C@@H](Cc1ccc(CP(=O)(O)O)cc1)C(=O)O; pY = N[C@@H](Cc1ccc(OP(=O)(O)O)cc1)C(=O)O

Turning to `CC[C@H](C)[C@H](NC(=O)[C@@H](NC(=O)[C@H](C)NC(=O)[C@H](Cc1ccc(OP(=O)(O)O)cc1)NC(=O)[C@H](CCC(=O)O)NC(=O)[C@@H](NC(=O)[C@H](CCC(N)=O)NC(=O)c1ccc2c(c1)C(=O)OC21c2ccc(O)cc2Oc2cc(O)ccc21)[C@@H](C)O)[C@@H](C)O)C(=O)N[C@@H](CCCCN)C(=O)N[C@@H](Cc1ccccc1)C(=O)N1CCC[C@H]1C(N)=O` [compound 16] (5FAM-QTE[pY]ATIKFP-NH2), the results for the Kd on SHP2 C‐SH2 domain and at SHP2 N‐SH2 domain were 86 ± 2.43 nM and 1090 ± 199 nM, respectively.
The like results for `CC[C@H](C)[C@H](NC(=O)[C@@H](NC(=O)[C@H](C)NC(=O)[C@H](Cc1ccc(OP(=O)(O)O)cc1)NC(=O)[C@H](CCC(=O)O)NC(=O)[C@@H](NC(=O)[C@H](CCC(N)=O)NC(=O)c1ccc2c(c1)C(=O)OC21c2ccc(O)cc2Oc2cc(O)ccc21)[C@@H](C)O)C(C)C)C(=O)N[C@@H](CCCCN)C(=O)N[C@@H](Cc1ccccc1)C(=O)N1CCC[C@H]1C(N)=O` [compound 14] (5FAM-QTE[pY]AVIKFP-NH2) were, in that order, 80.2 ± 4.32 nM and 840 ± 228 nM.
With `CC[C@H](C)[C@H](NC(=O)[C@@H](NC(=O)[C@H](C)NC(=O)[C@H](Cc1ccc(OP(=O)(O)O)cc1)NC(=O)[C@H](CCC(=O)O)NC(=O)[C@@H](NC(=O)[C@H](CCC(N)=O)NC(=O)[C@H](C)NC(=O)c1ccc2c(c1)C(=O)OC21c2ccc(O)cc2Oc2cc(O)ccc21)[C@@H](C)O)[C@@H](C)O)C(=O)N[C@H](C(=O)N[C@@H](Cc1ccccc1)C(=O)N1CCC[C@H]1C(N)=O)C(C)C` [peptide 1] (5FAM-AQTE[pY]ATIVFP-NH2), the Kd was determined as 62 ± 1.98 nM on SHP2 C‐SH2 domain and 295 ± 37.2 nM at SHP2 N‐SH2 domain.
With `CC[C@H](C)[C@H](NC(=O)[C@@H](NC(=O)[C@H](C)NC(=O)[C@H](Cc1ccc(CP(=O)(O)O)cc1)NC(=O)[C@H](CCC(=O)O)NC(=O)[C@@H](NC(=O)[C@H](CCC(N)=O)NC(=O)[C@H](CCC(=O)O)NC(=O)c1ccc2c(c1)C(=O)OC21c2ccc(O)cc2Oc2cc(O)ccc21)[C@@H](C)O)[C@@H](C)O)C(=O)N[C@H](C(=O)N[C@@H](Cc1ccccc1)C(=O)N1CCC[C@H]1C(N)=O)C(C)C` [FAM‐ITSM(Pmp)] (5FAM-EQTE[Pmp]ATIVFP-NH2), at SHP2 C‐SH2 domain, the “binding to the C‐SH2 domain, in words” value is “marked decrease in binding affinity” and the Kd was > 2000 nM. At SHP2 N‐SH2 domain, the “binding to the N‐SH2 domain, in words” value was “greatly reduced binding” and the Kd was > 10000 nM.
Consider `CC[C@H](C)[C@H](NC(=O)[C@@H](NC(=O)[C@H](C)NC(=O)[C@H](Cc1ccc(OP(=O)(O)O)cc1)NC(=O)[C@H](CCC(=O)O)NC(=O)[C@@H](NC(=O)[C@H](CCC(N)=O)NC(=O)c1ccc2c(c1)C(=O)OC21c2ccc(O)cc2Oc2cc(O)ccc21)[C@@H](C)O)[C@@H](C)O)C(=O)N[C@@H](CCCCN)C(=O)N[C@@H](Cc1c[nH]cn1)C(=O)N1CCC[C@H]1C(N)=O` [peptide 18] (5FAM-QTE[pY]ATIKHP-NH2), for which the Kd at SHP2 C‐SH2 domain was 88.2 ± 4.29 nM; on SHP2 N‐SH2 domain, > 3000 nM.
In the case of `CC[C@H](C)[C@H](NC(=O)[C@@H](NC(=O)[C@H](C)NC(=O)[C@H](Cc1ccc(OP(=O)(O)O)cc1)NC(=O)[C@H](CCC(=O)O)NC(=O)[C@@H](NC(=O)[C@H](CCC(N)=O)NC(=O)c1ccc2c(c1)C(=O)OC21c2ccc(O)cc2Oc2cc(O)ccc21)[C@@H](C)O)[C@@H](C)O)C(=O)N[C@H](C(=O)N[C@@H](Cc1ccccc1)C(=O)N1CCC[C@H]1C(N)=O)C(C)C` [compound 11] (5FAM-QTE[pY]ATIVFP-NH2), the results for the Kd on SHP2 C‐SH2 domain and on SHP2 N‐SH2 domain were 40.8 ± 0.96 nM and 204 ± 10.4 nM, respectively.
With `CC[C@H](C)[C@H](NC(=O)[C@@H](NC(=O)[C@H](C)NC(=O)[C@H](Cc1ccc(C(F)(F)P(=O)(O)O)cc1)NC(=O)[C@H](CCC(=O)O)NC(=O)[C@@H](NC(=O)[C@H](CCC(N)=O)NC(=O)[C@H](CCC(=O)O)NC(=O)c1ccc2c(c1)C(=O)OC21c2ccc(O)cc2Oc2cc(O)ccc21)[C@@H](C)O)[C@@H](C)O)C(=O)N[C@H](C(=O)N[C@@H](Cc1ccccc1)C(=O)N1CCC[C@H]1C(N)=O)C(C)C` [FAM‐ITSM(F2Pmp)] (5FAM-EQTE[F2Pmp]ATIVFP-NH2), on SHP2 C‐SH2 domain, the “binding to the C‐SH2 domain, in words” value is given as “marked decrease in binding affinity” and the Kd is > 2000 nM. Also, on SHP2 N‐SH2 domain, the “binding to the N‐SH2 domain, in words” value is given as “slightly better binding than FAM‐ITSM(L‐OMT)” and the Kd came out at 1390 ± 63 nM.
Take `CC[C@H](C)[C@H](NC(=O)[C@@H](NC(=O)[C@H](C)NC(=O)[C@H](Cc1ccc(OP(=O)(O)O)cc1)NC(=O)[C@H](CCC(=O)O)NC(=O)[C@@H](NC(=O)[C@H](CCCCN)NC(=O)c1ccc2c(c1)C(=O)OC21c2ccc(O)cc2Oc2cc(O)ccc21)[C@@H](C)O)[C@@H](C)O)C(=O)N[C@@H](CCCCN)C(=O)N[C@@H](Cc1ccccc1)C(=O)N1CCC[C@H]1C(N)=O` [compound 15] (5FAM-KTE[pY]ATIKFP-NH2): the Kd on SHP2 C‐SH2 domain came to 61.5 ± 1.83 nM; on SHP2 N‐SH2 domain it was 1550 ± 528 nM.
The like results for `CC[C@H](C)[C@H](NC(=O)[C@@H](NC(=O)[C@H](C)NC(=O)[C@H](Cc1ccc(OP(=O)(O)O)cc1)NC(=O)[C@H](C)NC(=O)[C@@H](NC(=O)[C@H](CCC(N)=O)NC(=O)[C@H](CCC(=O)O)NC(=O)c1ccc2c(c1)C(=O)OC21c2ccc(O)cc2Oc2cc(O)ccc21)[C@@H](C)O)[C@@H](C)O)C(=O)N[C@H](C(=O)N[C@@H](Cc1ccccc1)C(=O)N1CCC[C@H]1C(N)=O)C(C)C` [compound 4] (5FAM-EQTA[pY]ATIVFP-NH2) were, in that order, 95.1 ± 14.4 nM and 234 ± 17.6 nM.
Consider `CC[C@H](C)[C@H](NC(=O)[C@@H](NC(=O)[C@H](C)NC(=O)[C@H](Cc1ccc(OP(=O)(O)O)cc1)NC(=O)[C@H](CCC(=O)O)NC(=O)[C@H](CCC(=O)O)NC(=O)[C@H](CCCCN)NC(=O)c1ccc2c(c1)C(=O)OC21c2ccc(O)cc2Oc2cc(O)ccc21)[C@@H](C)O)C(=O)N[C@@H](CCCCN)C(=O)N[C@@H](Cc1c[nH]cn1)C(=O)N1CCC[C@H]1C(N)=O` [compound 20] (5FAM-KEE[pY]ATIKHP-NH2), for which the Kd on SHP2 C‐SH2 domain was > 500 nM.
For the compound `CC[C@H](C)[C@H](NC(=O)[C@@H](NC(=O)[C@H](C)NC(=O)[C@H](Cc1ccc(OP(=O)(O)O)cc1)NC(=O)[C@H](CCC(=O)O)NC(=O)[C@@H](NC(=O)[C@H](CCC(N)=O)NC(=O)c1ccc2c(c1)C(=O)OC21c2ccc(O)cc2Oc2cc(O)ccc21)[C@@H](C)O)[C@@H](C)O)C(=O)N[C@@H](CCCCN)C(=O)N[C@H](C(=O)N1CCC[C@H]1C(N)=O)[C@@H](C)CC` [compound 12] (5FAM-QTE[pY]ATIKIP-NH2), the Kd on SHP2 C‐SH2 domain was 141 ± 6.2 nM.
For `CC[C@H](C)[C@H](NC(=O)[C@@H](NC(=O)[C@H](C)NC(=O)[C@H](Cc1ccc(OP(=O)(O)O)cc1)NC(=O)[C@H](CCC(=O)O)NC(=O)[C@@H](NC(=O)[C@H](CCCCN)NC(=O)c1ccc2c(c1)C(=O)OC21c2ccc(O)cc2Oc2cc(O)ccc21)[C@@H](C)O)[C@@H](C)O)C(=O)N[C@@H](CCCCN)C(=O)N[C@@H](Cc1c[nH]cn1)C(=O)N1CCC[C@H]1C(N)=O` [compound 19] (5FAM-KTE[pY]ATIKHP-NH2), the Kd at SHP2 C‐SH2 domain amounted to 105 ± 3.6 nM.
